PubChem BioAssay AID330 (DTP/NCI, 2004)
Several values for one entry are separate records, joined by “and”; a condition that tells them apart may be missing. Equal values may be shown once. Inconclusive results and toxic doses are left out. How the source made its calls: active means survival T/C of 150% or more; inactive means T/C below 125% in these data.

System: P388 leukemia ip, CD2F1 mice, survival T/C
Experiment: NCI In Vivo Anticancer Drug Screen. Data for tumor model P388 Leukemia (intraperitoneal) in CD2F1 (CDF1) mice
Conditions: endpoint: median survival time, higher = longer survival
In short: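 Mice carrying the transplanted tumor received test compound or vehicle. Survival was recorded in each group, and the value is the treated-group measurement divided by that of the vehicle-treated control group.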

[1] = dose: 50.0 mg/kg/injection, schedule: Q01DX009 (ip), vehicle: saline with Tween-80
[2] = dose: 100.0 mg/kg/injection, schedule: Q01DX009 (ip), vehicle: saline with Tween-80
[3] = dose: 200.0 mg/kg/injection, schedule: Q01DX009 (ip), vehicle: saline with Tween-80
[4] = dose: 50.0 mg/kg/injection, schedule: Q01DX009 (ip), vehicle: Klucel (hydroxypropylcellulose) (HPC)
[5] = dose: 100.0 mg/kg/injection, schedule: Q01DX009 (ip), vehicle: Klucel (hydroxypropylcellulose) (HPC)

Measured: T/C

O=C1CCCC2c3[nH]c4ccccc4c3CCN12 (configuration not stated)
inactive: dose: 100.0 mg/kg/injection, schedule: Q04DX002 (ip), vehicle: Klucel (hydroxypropylcellulose) (HPC) 97 % of control | dose: 200.0 mg/kg/injection, schedule: Q04DX002 (ip), vehicle: Klucel (hydroxypropylcellulose) (HPC) 100 % of control | dose: 400.0 mg/kg/injection, schedule: Q04DX002 (ip), vehicle: Klucel (hydroxypropylcellulose) (HPC) 96 % of control

CC(C)Sc1ncnc2nc[nH]c12
inactive: [1] 100 % of control | [2] 104 % of control | dose: 100.0 mg/kg/injection, schedule: Q04DX003 (ip), vehicle: saline with Tween-80 95 % of control | [3] 118 % of control | dose: 200.0 mg/kg/injection, schedule: Q04DX003 (ip), vehicle: saline with Tween-80 86 % of control

O=[N+]([O-])O.[Ga]
inactive: dose: 6.25 mg/kg/injection, schedule: Q01DX005 (ip), vehicle: saline 100 % of control | dose: 6.25 mg/kg/injection, schedule: Q01DX010 (ip), vehicle: saline 100 % of control | dose: 12.5 mg/kg/injection, schedule: Q01DX005 (iv), vehicle: saline 99 % of control | dose: 12.5 mg/kg/injection, schedule: Q01DX010 (ip), vehicle: saline 100 % of control | dose: 25.0 mg/kg/injection, schedule: Q01DX005 (ip), vehicle: saline 100 % of control and 123 % of control | dose: 25.0 mg/kg/injection, schedule: Q01DX005 (iv), vehicle: saline 96 % of control | dose: 25.0 mg/kg/injection, schedule: Q01DX010 (ip), vehicle: saline 118 % of control | dose: 50.0 mg/kg/injection, schedule: Q01DX005 (iv), vehicle: saline 98 % of control and 91 % of control | dose: 50.0 mg/kg/injection, schedule: Q01DX010 (ip), vehicle: saline 100 % of control

CCCN1C(=O)CC(=O)N(CCC)P1(=O)OCC
inactive: dose: 100.0 mg/kg/injection, schedule: Q04DX002 (ip), vehicle: saline 101 % of control | dose: 200.0 mg/kg/injection, schedule: Q04DX002 (ip), vehicle: saline 108 % of control | dose: 400.0 mg/kg/injection, schedule: Q04DX002 (ip), vehicle: saline 101 % of control

O=[N+]([O-])c1ccc(OC2OCC(O)C(O)C2O)cc1 (configuration not stated)
inactive: dose: 60.0 mg/kg/injection, schedule: Q01DX005 (ip), vehicle: saline 97 % of control | dose: 120.0 mg/kg/injection, schedule: Q01DX005 (ip), vehicle: saline 88 % of control | dose: 240.0 mg/kg/injection, schedule: Q01DX005 (ip), vehicle: saline 89 % of control

CC(C)[C@]12O[C@H]1[C@@H]1O[C@]13[C@]1(O[C@H]1C[C@H]1C4=C(CC[C@@]13C)C(=O)OC4)[C@@H]2O
inactive: dose: 62.5 micrograms/kg/injection, schedule: Q01DX009 (ip), vehicle: saline with Tween-80 95 % of control | dose: 125.0 micrograms/kg/injection, schedule: Q01DX009 (ip), vehicle: saline with Tween-80 95 % of control | dose: 250.0 micrograms/kg/injection, schedule: Q01DX009 (ip), vehicle: saline with Tween-80 112 % of control

OC1N2CCSC2=NC1(c1ccccc1)c1ccccc1 (configuration not stated)
inactive: dose: 18.75 mg/kg/injection, schedule: Q04DX003 (ip), vehicle: Klucel (hydroxypropylcellulose) (HPC) 107 % of control | dose: 37.5 mg/kg/injection, schedule: Q04DX003 (ip), vehicle: Klucel (hydroxypropylcellulose) (HPC) 95 % of control | dose: 75.0 mg/kg/injection, schedule: Q04DX003 (ip), vehicle: Klucel (hydroxypropylcellulose) (HPC) 100 % of control | dose: 150.0 mg/kg/injection, schedule: Q04DX003 (ip), vehicle: Klucel (hydroxypropylcellulose) (HPC) 110 % of control | dose: 300.0 mg/kg/injection, schedule: Q04DX003 (ip), vehicle: Klucel (hydroxypropylcellulose) (HPC) 93 % of control

Cc1ccc(C)n1-c1ccsc1C(=O)NNC(=O)C(Cl)Cl
inactive: dose: 7.5 mg/kg/injection, schedule: Q01DX005 (ip), vehicle: Klucel (hydroxypropylcellulose) (HPC) 100 % of control | dose: 15.0 mg/kg/injection, schedule: Q01DX005 (ip), vehicle: Klucel (hydroxypropylcellulose) (HPC) 106 % of control | dose: 30.0 mg/kg/injection, schedule: Q01DX005 (ip), vehicle: Klucel (hydroxypropylcellulose) (HPC) 99 % of control

Cn1ccoc1=NC1CCCCC1
inactive: [1] 110 % of control | [2] 100 % of control | [3] 100 % of control

COC(=O)c1ccccc1S(=O)(=O)NC(C)C
inactive: dose: 50.0 mg/kg/injection, schedule: Q01DX005 (ip), vehicle: Klucel (hydroxypropylcellulose) (HPC) 99 % of control | dose: 100.0 mg/kg/injection, schedule: Q01DX005 (ip), vehicle: Klucel (hydroxypropylcellulose) (HPC) 96 % of control | dose: 200.0 mg/kg/injection, schedule: Q01DX005 (ip), vehicle: Klucel (hydroxypropylcellulose) (HPC) 105 % of control

CN1CCN(CC2CCOc3cc(Cl)ccc3C2=O)CC1 (configuration not stated)
inactive: dose: 100.0 mg/kg/injection, schedule: Q04DX003 (ip), vehicle: saline 105 % of control | dose: 200.0 mg/kg/injection, schedule: Q04DX003 (ip), vehicle: saline 108 % of control

CC(N=[N+]=[N-])n1nnnc1-c1ccccc1 (configuration not stated)
inactive: dose: 25.0 mg/kg/injection, schedule: Q01DX001 (ip), vehicle: Klucel (hydroxypropylcellulose) (HPC) 101 % of control | dose: 50.0 mg/kg/injection, schedule: Q01DX001 (ip), vehicle: Klucel (hydroxypropylcellulose) (HPC) 121 % of control | dose: 100.0 mg/kg/injection, schedule: Q01DX001 (ip), vehicle: Klucel (hydroxypropylcellulose) (HPC) 113 % of control and 120 % of control | dose: 200.0 mg/kg/injection, schedule: Q01DX001 (ip), vehicle: Klucel (hydroxypropylcellulose) (HPC) 91 % of control

CNc1ncnc2ccc(Cl)cc12
inactive: [4] 93 % of control | [5] 102 % of control

COc1cc2c(cc1OC)[C@H](C(=O)O)[C@@H](c1ccc(OC(C)C)c(OC)c1)N(C)C2=O
inactive: dose: 60.0 mg/kg/injection, schedule: Q01DX005 (ip), vehicle: saline with Tween-80 95 % of control | dose: 120.0 mg/kg/injection, schedule: Q01DX005 (ip), vehicle: saline with Tween-80 100 % of control | dose: 240.0 mg/kg/injection, schedule: Q01DX005 (ip), vehicle: saline with Tween-80 100 % of control

CCc1cccc(CC)c1N1C(=O)C=CC1=O
inactive: dose: 0.5 mg/kg/injection, schedule: Q01DX009 (ip), vehicle: Klucel (hydroxypropylcellulose) (HPC) 104 % of control | dose: 1.0 mg/kg/injection, schedule: Q01DX009 (ip), vehicle: Klucel (hydroxypropylcellulose) (HPC) 99 % of control | dose: 2.0 mg/kg/injection, schedule: Q01DX009 (ip), vehicle: Klucel (hydroxypropylcellulose) (HPC) 100 % of control | dose: 4.0 mg/kg/injection, schedule: Q01DX009 (ip), vehicle: Klucel (hydroxypropylcellulose) (HPC) 105 % of control | dose: 8.0 mg/kg/injection, schedule: Q01DX009 (ip), vehicle: Klucel (hydroxypropylcellulose) (HPC) 101 % of control | dose: 16.0 mg/kg/injection, schedule: Q01DX009 (ip), vehicle: Klucel (hydroxypropylcellulose) (HPC) 96 % of control

CCO/C=C(\C)CC1([N+](=O)[O-])C(=O)c2ccccc2C1=O
inactive: dose: 60.0 mg/kg/injection, schedule: Q01DX005 (ip), vehicle: Klucel (hydroxypropylcellulose) (HPC) 107 % of control | dose: 120.0 mg/kg/injection, schedule: Q01DX005 (ip), vehicle: Klucel (hydroxypropylcellulose) (HPC) 107 % of control | dose: 240.0 mg/kg/injection, schedule: Q01DX005 (ip), vehicle: Klucel (hydroxypropylcellulose) (HPC) 117 % of control

O=[Se](=O)(O)O
inactive: dose: 1.88 mg/kg/injection, schedule: Q01DX005 (ip), vehicle: saline 103 % of control | dose: 3.75 mg/kg/injection, schedule: Q01DX005 (ip), vehicle: saline 109 % of control and 99 % of control | dose: 7.5 mg/kg/injection, schedule: Q01DX005 (ip), vehicle: saline 113 % of control and 101 % of control | dose: 15.0 mg/kg/injection, schedule: Q01DX005 (ip), vehicle: saline 86 % of control and 98 % of control

COC(=O)C1CCC=CC1Sc1ccccc1 (configuration not stated)
inactive: [4] 105 % of control | [5] 106 % of control | dose: 200.0 mg/kg/injection, schedule: Q01DX009 (ip), vehicle: Klucel (hydroxypropylcellulose) (HPC) 112 % of control
